Test results reported in ChEMBL document CHEMBL1201862, “PubChem BioAssay data set” (2004).
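1) Cells in 96-well plates. 2) Compound, 48 h, 5 concentrations. 3) Linear interpolation between surrounding doses. 4) Unreached endpoint = highest concentration. Abbreviation: GI50, concentration required for 50% inhibition of growth.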 Activity calls are given as the source filed them. No stated cut-off is given here; in the data, active = GI50 up to about 1.1 µM and inactive = higher.

Tests used:
Assay in all cases: growth of human tumour cells (NCI), 48 h
A498 = system: A498
CCRF-CEM = system: CCRF-CEM
EKVX = system: EKVX
HCT-116 = system: HCT-116
HOP-62 = system: HOP-62
Hs-578T = system: Hs-578T
IGROV-1 = system: IGROV-1
LOX IMVI = system: LOX IMVI
M14 = system: M14
MDA-MB-435 = system: MDA-MB-435
MOLT-4 = system: MOLT-4
Malme-3M = system: Malme-3M
NCI-H226 = system: NCI-H226
OVCAR-4 = system: OVCAR-4
RPMI-8226 = system: RPMI-8226
SK-MEL-2 = system: SK-MEL-2
SK-MEL-5 = system: SK-MEL-5
TK-10 = system: TK-10
UACC-257 = system: UACC-257
UO-31 = system: UO-31

Measured: GI50

CCCCCCCCCCCCCCCCCCNc1ccn(C2OC(COP(=O)(O)OCC(COP(=O)(O)OCC3OC(n4cc(C)c(=O)[nH]c4=O)CC3N=[N+]=[N-])OCCCCCCCCCCCCCCCCCC)C(O)C2O)c(=O)n1 (stereo not given)
inactive: A498 > 100 µM | CCRF-CEM > 100 µM | EKVX > 100 µM | HCT-116 56.8 µM | HOP-62 > 100 µM | Hs-578T > 100 µM | IGROV-1 52.2 µM | LOX IMVI 21.2 µM | M14 > 100 µM | MDA-MB-435 87.1 µM | MOLT-4 41.5 µM | Malme-3M 27 µM | NCI-H226 > 100 µM | OVCAR-4 70.5 µM | RPMI-8226 7.46 µM | SK-MEL-2 > 100 µM | SK-MEL-5 86.5 µM | TK-10 > 100 µM | UACC-257 50.1 µM | UO-31 17.7 µM

CC(=O)OC1CCC2(C)C(=CCC3C4CCC5(OC6CC(C)CN(C(C)=O)C6C5C)C(C)=C4C(=O)C32)C1 (stereo not given)
inactive: A498 15.8 µM | CCRF-CEM > 100 µM | EKVX 7.96 µM | HCT-116 18.9 µM | HOP-62 20.4 µM | Hs-578T 16 µM | IGROV-1 14.4 µM | LOX IMVI 12 µM | M14 12.7 µM | MDA-MB-435 15.3 µM | MOLT-4 5.53 µM | Malme-3M 15.2 µM | NCI-H226 22.2 µM | OVCAR-4 15.4 µM | RPMI-8226 14.6 µM | SK-MEL-2 17.8 µM | SK-MEL-5 10 µM | TK-10 24.3 µM | UACC-257 13.6 µM | UO-31 31.9 µM

O=C1N[C@H]2C(=O)c3c(Br)sc(Br)c3[C@H]2O1
inactive: A498 18.7 µM | CCRF-CEM 1.31 µM | EKVX 5.69 µM | HCT-116 2.77 µM | HOP-62 16.2 µM | Hs-578T 18.7 µM | IGROV-1 11.4 µM | LOX IMVI 3.08 µM | M14 3.08 µM | MDA-MB-435 3.89 µM | MOLT-4 2.25 µM | Malme-3M 4.75 µM | NCI-H226 18.1 µM | OVCAR-4 15.3 µM | RPMI-8226 4.44 µM | SK-MEL-2 14.7 µM | SK-MEL-5 14 µM | TK-10 22 µM | UACC-257 8.07 µM | UO-31 1.86 µM

CCOC(=O)C(Cc1ccc(OC(=O)c2ccc(OC)cc2OC)cc1)NC(=O)C(F)(F)F (stereo not given)
inactive: A498 15.7 µM | CCRF-CEM 19.2 µM | EKVX 21.4 µM | HCT-116 34.1 µM | HOP-62 21.3 µM | Hs-578T 27.5 µM | IGROV-1 19.2 µM | LOX IMVI 18.6 µM | M14 17.5 µM | MDA-MB-435 18.7 µM | MOLT-4 16.8 µM | Malme-3M 21.3 µM | NCI-H226 65.2 µM | OVCAR-4 23.5 µM | RPMI-8226 20.3 µM | SK-MEL-2 24.6 µM | SK-MEL-5 37.3 µM | TK-10 22.2 µM | UACC-257 15.3 µM | UO-31 18 µM

O=C(Cn1c(C(=O)/C=C/c2ccc(Cl)cc2)nc2ccccc21)c1ccc(Cl)cc1
inactive: A498 32.3 µM | CCRF-CEM 2.7 µM | EKVX 26.5 µM | HCT-116 10.9 µM | HOP-62 16.4 µM | Hs-578T 10.9 µM | IGROV-1 16.7 µM | LOX IMVI 16 µM | M14 18.1 µM | MDA-MB-435 17.1 µM | MOLT-4 2.26 µM | Malme-3M 20.9 µM | NCI-H226 21.4 µM | OVCAR-4 13.4 µM | RPMI-8226 6.18 µM | SK-MEL-2 17.6 µM | SK-MEL-5 14.8 µM | TK-10 30.8 µM | UACC-257 24.1 µM | UO-31 19.8 µM

Cc1ccc([N+](=O)[O-])cc1S(=O)(=O)Nc1ccc(C2=NOC(c3cccs3)C2)cc1 (stereo not given)
inactive: A498 4.56 µM | CCRF-CEM 8.93 µM | EKVX 19.9 µM | HCT-116 11.1 µM | HOP-62 5.79 µM | Hs-578T 20 µM | IGROV-1 11.1 µM | LOX IMVI 11 µM | M14 5.98 µM | MDA-MB-435 2.53 µM | MOLT-4 4.04 µM | Malme-3M 13.9 µM | NCI-H226 25.1 µM | OVCAR-4 9.42 µM | RPMI-8226 10.4 µM | SK-MEL-2 4.81 µM | SK-MEL-5 7.66 µM | TK-10 16.4 µM | UACC-257 16.9 µM | UO-31 6.25 µM

COCn1c(=O)n(C)c(=O)c2c1nc1c(c(=O)n(C)c(=O)n1COC)[n+]2[O-]
inactive: A498 31.2 µM | CCRF-CEM 5.37 µM | EKVX 7.85 µM | HCT-116 10.6 µM | HOP-62 9.23 µM | Hs-578T 8.55 µM | IGROV-1 7.36 µM | LOX IMVI 6.68 µM | M14 10.3 µM | MDA-MB-435 5.75 µM | MOLT-4 4.19 µM | Malme-3M 5.47 µM | NCI-H226 10.1 µM | OVCAR-4 4.85 µM | RPMI-8226 9.1 µM | SK-MEL-2 12.6 µM | SK-MEL-5 5.83 µM | TK-10 8.69 µM | UACC-257 18.2 µM | UO-31 24.9 µM

Cc1c(/N=N/c2ccc([N+](=O)[O-])cc2)nc2scc(-c3ccccc3)n12
inactive: A498 > 100 µM | CCRF-CEM 21.7 µM | EKVX > 100 µM | HCT-116 > 100 µM | HOP-62 > 66.5 µM | Hs-578T > 78.7 µM | IGROV-1 > 84.1 µM | LOX IMVI 57.1 µM | M14 > 100 µM | MDA-MB-435 > 100 µM | MOLT-4 19.6 µM | Malme-3M > 100 µM | NCI-H226 > 100 µM | OVCAR-4 > 100 µM | RPMI-8226 67.1 µM | SK-MEL-2 > 100 µM | SK-MEL-5 > 100 µM | TK-10 > 74.6 µM | UACC-257 > 100 µM | UO-31 58.7 µM

CC1OC(OC2C(OC(=O)[C@]34CCC(C)(C)C[C@H]3C3=CC[C@@H]5[C@@]6(C)CC[C@H](OC7OC(CO)C(O)C(O)C7OC7OC(CO)C(O)C(O)C7O)C(C)(C)[C@@H]6CC[C@@]5(C)[C@]3(C)CC4)OCC(O)C2O)C(O)C(O)C1OC1OCC(O)C(O)C1O (stereo not given in full)
inactive: A498 2.25 µM | CCRF-CEM 18.5 µM | EKVX 5 µM | HCT-116 11 µM | HOP-62 15.3 µM | Hs-578T 20.7 µM | IGROV-1 16 µM | LOX IMVI 18.2 µM | M14 4.67 µM | MDA-MB-435 2.79 µM | MOLT-4 16.4 µM | Malme-3M 3.82 µM | NCI-H226 10.8 µM | OVCAR-4 9.59 µM | RPMI-8226 12.9 µM | SK-MEL-2 6.32 µM | SK-MEL-5 14.3 µM | TK-10 8.51 µM | UACC-257 2.51 µM | UO-31 2.3 µM
